Assay results from article PMC10304291, “THC-Reduced Cannabis sativa L.—How Does the Solvent Determine the Bioavailability of Cannabinoids Given Orally?” (Nutrients, 2023).
Like-named read-outs stand apart in the source and are kept apart here.

How the values were obtained:
[1] = cited from earlier work
[2] = 12 healthy volunteers; chocolate cookies with 0.57 mg/kg CBD + 0.28 mg/kg THC; after 1.5–3 h; cited from earlier work
[3] = Whole-blood pharmacokinetics of CBD and THC after single oral dose of Cannabis sativa extract; settings: for CBD levels in whole blood: range of levels; for concentration at 0.5 h / concentration at 1 h / concentration at 2 h / concentration at 4 h / concentration at 6 h / concentration at 24 h / AUC(0-t) / Cmax / MRT / Tmax / CL / Vd: whole blood; for concentration at 0.5 h / concentration at 1 h / concentration at 2 h / concentration at 4 h / concentration at 6 h / concentration at 24 h: oral; for AUC(0-t): AUC0–24, whole blood
[4] = 24 volunteers, 0.078 mg/kg CBD + […] THC, cited from earlier work
[5] = mice; oral CBD 120 mg/kg in Cremophor; cited from earlier work
[6] = Brain pharmacokinetics of CBD and THC after single oral dose of Cannabis sativa extract; settings: for mean concentration over time: Table 7; for AUC(0-t): AUC0–24, brain
[7] = rats; oral CBD 120 mg/kg in Cremophor; cited from earlier work
[8] = male, Wistar, rat, 30 mg/kg, Mean Concentration ± SD, blood, Rapae oleum, single oral dose of extract 30 mg/kg
[9] = male, Wistar, rat, 30 mg/kg, Mean Concentration, blood, Cremophor, single oral dose of extract 30 mg/kg
[10] = male, Wistar, rat, 30 mg/kg, mean concentration over time, Blood/Cremophor, single oral dose of extract 30 mg/kg, Table 7
[11] = male, Wistar, rat, 30 mg/kg, mean concentration over time, Blood/Rapae Oleum, single oral dose of extract 30 mg/kg, Table 7
[12] = male, Wistar, rat, po, 30 mg/kg, Cremophor, single oral dose of extract 30 mg/kg
[13] = male, Wistar, rat, po, 30 mg/kg, Rapae oleum, single oral dose of extract 30 mg/kg
[14] = Cremophor, single oral dose of extract 30 mg/kg
[15] = Rapae oleum, single oral dose of extract 30 mg/kg
[16] = 1 h after gelatin capsules with extract
[17] = male, Wistar, rat, brain, po, 30 mg/kg, Cremophor, single oral dose of extract 30 mg/kg
[18] = male, Wistar, rat, brain, po, 30 mg/kg, Rapae oleum, single oral dose of extract 30 mg/kg

**Q.** With `C=C(C)[C@@H]1CCC(C)=C[C@H]1c1c(O)cc(CCCCC)cc1O` [CBD, cannabidiol] as the compound, how does the “peak concentration in the blood” value ([1]; oral CBD 120 mg/kg in Cremophor, at 2 h) read?
**A.** 2 µg/mL

**Q.** And the “peak concentration in the blood” value ([1]; oral CBD 120 mg/kg in Solutol, at 6 h)?
**A.** 3.2 µg/mL

**Q.** And the whole-blood concentration [2]?
**A.** about 5 ng/mL

**Q.** And the “CBD levels in whole blood” value ([3]; Cremophor)?
**A.** 1.43 to 231.43 ng/mL

**Q.** What about the concentration at 0.5 h [3, 8] of the same compound?
**A.** 26.9 ± 21.5 ng/g

**Q.** What about the concentration at 1 h [3, 8] of the same compound?
**A.** 107 ± 51 ng/g

**Q.** What about the concentration at 2 h [3, 8] of the same compound?
**A.** 334 ± 139 ng/g

**Q.** And the concentration at 4 h [3, 8]?
**A.** 154 ± 146 ng/g

**Q.** What about the concentration at 6 h [3, 8] of the same compound?
**A.** 37.6 ± 11.3 ng/g

**Q.** And the concentration at 24 h [3, 8]?
**A.** 2.76 ± 2.12 ng/g

**Q.** What about the concentration at 0.5 h [3, 9] of the same compound?
**A.** 120 ± 93.5 ng/g

**Q.** And the concentration at 1 h [3, 9]?
**A.** 109 ± 35.4 ng/g

**Q.** What about the concentration at 2 h [3, 9] of the same compound?
**A.** 46.5 ± 15.7 ng/g

**Q.** What about the concentration at 4 h [3, 9] of the same compound?
**A.** 35.1 ± 4.71 ng/g

**Q.** And the concentration at 6 h [3, 9]?
**A.** 31.4 ± 9.28 ng/g

**Q.** What about the concentration at 24 h [3, 9] of the same compound?
**A.** 12.3 ± 18 ng/g

**Q.** What about the concentration at 0.5 h [3, 10] of the same compound?
**A.** 120 ng/mL

**Q.** And the concentration at 1 h [3, 10]?
**A.** 109 ng/mL

**Q.** What about the concentration at 2 h [3, 10] of the same compound?
**A.** 46.5 ng/mL

**Q.** What about the concentration at 4 h [3, 10] of the same compound?
**A.** 35.1 ng/mL

**Q.** And the concentration at 6 h [3, 10]?
**A.** 31.4 ng/mL

**Q.** And the concentration at 24 h [3, 10]?
**A.** 12.3 ng/mL

**Q.** And the concentration at 0.5 h [3, 11]?
**A.** 26.9 ng/mL

**Q.** What about the concentration at 1 h [3, 11] of the same compound?
**A.** 107 ng/mL

**Q.** And the concentration at 2 h [3, 11]?
**A.** 334 ng/mL

**Q.** And the concentration at 4 h [3, 11]?
**A.** 154 ng/mL

**Q.** And the concentration at 6 h [3, 11]?
**A.** 37.6 ng/mL

**Q.** And the concentration at 24 h [3, 11]?
**A.** 2.76 ng/mL

**Q.** What about the AUC(0-t) [3, 12] of the same compound?
**A.** 988 ng·h/mL

**Q.** What about the AUC(0-t) [3, 13] of the same compound?
**A.** 1290 ng·h/mL

**Q.** And the Cmax [3, 12]?
**A.** 120 ng/mL

**Q.** And the Cmax [3, 13]?
**A.** 334 ng/mL

**Q.** And the MRT [3, 12]?
**A.** 12 h

**Q.** What about the MRT [3, 13] of the same compound?
**A.** 4.03 h

**Q.** What about the Tmax ([3]; male, Wistar, rat, po, 30 mg/kg, Tmax, Rapae oleum, single oral dose of extract 30 mg/kg) of the same compound?
**A.** 2 h

**Q.** What about the “CBD levels in whole blood” value ([3]; oil (Rapae oleum)) of the same compound?
**A.** 1.06 to 588.03 ng/mL

**Q.** And the “time concentrations were detectable after administration” value ([3]; single oral dose of extract 30 mg/kg)?
**A.** up to 24 h

**Q.** And the CL [3, 14]?
**A.** 7.75 L/h

**Q.** What about the Tmax [3, 14] of the same compound?
**A.** 0.5 h

**Q.** And the Vd [3, 14]?
**A.** 69.66 L

**Q.** What about the CL [3, 15] of the same compound?
**A.** 5.85 L/h

**Q.** And the Vd [3, 15]?
**A.** 28.29 L

**Q.** And the “levels in whole blood (average)” value [4, 16]?
**A.** 0.93 ng/mL

**Q.** And the “levels in whole blood (range)” value [4, 16]?
**A.** 0.3 to 2.6 ng/mL

**Q.** What about the “time detectable after administration” value ([4]; gelatin capsules with extract) of the same compound?
**A.** 3 to 4 h

**Q.** And the “brain peak CBD concentration” value [5]?
**A.** 1.3 µg/g

**Q.** And the peak whole-blood concentration [5]?
**A.** ~2 µg/mL

**Q.** What about the “mean concentration over time” value ([6]; Brain/Cremophor, 0.5 h, single oral dose of extract 30 mg/kg) of the same compound?
**A.** 274.994

**Q.** And the “mean concentration over time” value ([6]; Brain/Cremophor, 1 h, single oral dose of extract 30 mg/kg)?
**A.** 213.491

**Q.** And the “mean concentration over time” value ([6]; Brain/Cremophor, 2 h, single oral dose of extract 30 mg/kg)?
**A.** 81.1135

**Q.** And the “mean concentration over time” value ([6]; Brain/Cremophor, 4 h, single oral dose of extract 30 mg/kg)?
**A.** 52.1185

**Q.** What about the “mean concentration over time” value ([6]; Brain/Cremophor, 6 h, single oral dose of extract 30 mg/kg) of the same compound?
**A.** 57.7145

**Q.** And the “mean concentration over time” value ([6]; Brain/Cremophor, 24 h, single oral dose of extract 30 mg/kg)?
**A.** 3.604

**Q.** And the “mean concentration over time” value ([6]; Brain/Rapae oleum, 0.5 h, single oral dose of extract 30 mg/kg)?
**A.** 23.327

**Q.** What about the “mean concentration over time” value ([6]; Brain/Rapae oleum, 1 h, single oral dose of extract 30 mg/kg) of the same compound?
**A.** 65.391

**Q.** And the “mean concentration over time” value ([6]; Brain/Rapae oleum, 2 h, single oral dose of extract 30 mg/kg)?
**A.** 301.388

**Q.** What about the “mean concentration over time” value ([6]; Brain/Rapae oleum, 4 h, single oral dose of extract 30 mg/kg) of the same compound?
**A.** 263.466

**Q.** What about the “mean concentration over time” value ([6]; Brain/Rapae oleum, 6 h, single oral dose of extract 30 mg/kg) of the same compound?
**A.** 59.650

**Q.** What about the “mean concentration over time” value ([6]; Brain/Rapae oleum, 24 h, single oral dose of extract 30 mg/kg) of the same compound?
**A.** 9.797

**Q.** And the Kp ([6]; male, Wistar, rat, brain / whole blood, po, 30 mg/kg, AUCbrain:AUC whole blood (AUC0–24 ratio), Cremophor, single oral dose of extract 30 mg/kg)?
**A.** 0.95

**Q.** What about the Kp ([6]; male, Wistar, rat, brain / whole blood, po, 30 mg/kg, AUCbrain:AUC whole blood (AUC0–24 ratio), Rapae oleum, single oral dose of extract 30 mg/kg) of the same compound?
**A.** 1.54

**Q.** And the concentration at 0.5 h ([6]; male, Wistar, rat, brain, oral, 30 mg/kg, Mean Concentration, Cremophor, 0.5 h, single oral dose of extract 30 mg/kg)?
**A.** 275 ± 104 ng/g

**Q.** And the concentration at 1 h ([6]; male, Wistar, rat, brain, oral, 30 mg/kg, Mean Concentration, Cremophor, 1 h, single oral dose of extract 30 mg/kg)?
**A.** 213 ± 66.1 ng/g

**Q.** And the concentration at 2 h ([6]; male, Wistar, rat, brain, oral, 30 mg/kg, Mean Concentration, Cremophor, 2 h, single oral dose of extract 30 mg/kg)?
**A.** 81.1 ± 23.4 ng/g

**Q.** What about the concentration at 4 h ([6]; male, Wistar, rat, brain, oral, 30 mg/kg, Mean Concentration, Cremophor, 4 h, single oral dose of extract 30 mg/kg) of the same compound?
**A.** 52.1 ± 12.2 ng/g

**Q.** What about the concentration at 6 h ([6]; male, Wistar, rat, brain, oral, 30 mg/kg, Mean Concentration, Cremophor, 6 h, single oral dose of extract 30 mg/kg) of the same compound?
**A.** 57.7 ± 25.9 ng/g

**Q.** And the concentration at 24 h ([6]; male, Wistar, rat, brain, oral, 30 mg/kg, Mean Concentration, Cremophor, 24 h, single oral dose of extract 30 mg/kg)?
**A.** 3.6 ± 0.493 ng/g

**Q.** And the Tmax ([6]; male, Wistar, rat, brain, po, 30 mg/kg)?
**A.** 2 h

**Q.** What about the AUC(0-t) [6, 17] of the same compound?
**A.** 943 ng·h/mL

**Q.** What about the AUC(0-t) [6, 18] of the same compound?
**A.** 1990 ng·h/mL

**Q.** And the Cmax [6, 17]?
**A.** 275 ng/g

**Q.** And the Cmax [6, 18]?
**A.** 301 ng/g

**Q.** What about the MRT [6, 17] of the same compound?
**A.** 6.19 h

**Q.** And the MRT [6, 18]?
**A.** 7.76 h

**Q.** What about the Kp ([6]; male, Wistar, rat, brain/whole blood, oral, 30 mg/kg, brain/whole-blood ratio, Cremophor, present study) of the same compound?
**A.** 2.29

**Q.** And the “brain peak CBD concentration” value [7]?
**A.** 8.6 µg/g

**Q.** And the peak whole-blood concentration [7]?
**A.** ~2 µg/mL
